Laboratory results from patent publication US20060229233A1, “Compositions and methods for treating neurological disorders” (ID Biomedical Corporation, priority 2004, published 2006).
Like-named read-outs stand apart in the source and are kept apart here. Marks after values point to notes of the source that are not given here.

Columns and labels:
microglial phagocytosis = conditions: Cha, A. et al. (2001) GLIA 33(1):87-95; cited from earlier work
J20 APP transgenic mice = type: in vivo; conditions: for occurrence of EAE: immunization in CFA + pertussis toxin
Experimental: Induction and clinical evaluation of EAE in APP+ mice. (B6D2)F1 or (B6XSJL)F1 APP+ (WT or B-cell deficient μMT) and non-tg littermates were immunized in the hind footpads with 100 μg MOG(35-55), PLP 139-151 or 100 μg β-amyloid peptide (1-40) in CFA. Immediately thereafter and again 48 hours later mice received an i.p. injection containing 150 ng of pertussis toxin in 0.2 ml PBS. Animals were monitored for symptoms of EAE beginning 7 days after immunization and scored as follows: 0, no disease; 1, tail paralysis; 2, hind limb weakness; 3, hind limb paralysis; 4, hind limb plus forelimb paralysis; and 5, moribund.
Nasal vaccination. Glatiramer acetate: 25 μg was given on days 1, 2, 4 and 5 the first week followed by a weekly boost for six weeks. IVX-908: 1 μg/mouse was given on days 1 and 5 the first week followed by a weekly boost for six weeks. BSA+IVX-908: 25 μg of BSA plus 1 ug IVX-908 were given on days 1 and 5 the first week, and 25 μg of BSA alone was given on days 2 and 4, followed by six weekly boosts of the combination of BSA+IVX-908. GA+IVX-908: 25 μg of GA plus 1 μg IVX-908 were given on days 1 and 5 the first week, and 25 μg of GA alone was given on days 2 and 4, followed by six weekly boosts of the combination of GA+IVX-908.

[1] = system: hippocampus of APP tg mice; assay: Immunohistochemistry of hippocampus in immunized animals; type: in vivo; conditions: for activated microglia (CD11b) in hippocampus: immunization in CFA, APP tg mice
Experimental: Immunohistology. The staining was performed utilizing the following markers: T-cells (CD3; BD Biosciences:553057), microglia/macrophages (CD11b; Serotec:MCA74G), (C-MFR; Cymbus Biotech:21080096), IFN-γ (Pharmingen: 559065), IL-10 (Pharmingen:559063) and TGF-β (RD:AB-20-PB). Anti-amyloid antibodies (R1282) were a gift of Dennis Seloke. Brain sections were further subject to Haematoxylin staining. Sections were evaluated in a blinded manner, and controls included use of isotype-matched mAbs as previously described. For each treatment the quantification was done from the hippocampal region of three different brain sections (the same region, Bregma −1.34, that were used for ThS staining). The results are expressed as the mean of the labeled cells for each marker.

APP non-transgenic mice = assay: Microglial activation in APP non-transgenic mice; type: in vivo; conditions: parenteral with CFA/PT or nasal
Aβ40 and Aβ42 [2] = assay: Total brain Aβ by sandwich ELISA, J20 APP transgenic mice; type: in vivo; conditions: for Total brain Aβ: subcutaneous immunization in CFA + pertussis toxin
Experimental: FIG. 1: Effect of subcutaneous immunization on total Aβ levels in the brain. To quantify amyloid burden, the right hemisphere was extracted in 5.0 M guanidinium-chloride (pH 8) for 3 hours at room temperature. Dilutions were used to measure levels of Aβ40 and Aβ42 by sandwich enzyme-linked immunosorbent assays (ELISA).
Amyloid quantification. To quantify amyloid burden, the right hemisphere was extracted in 5.0 M guanidinium-chloride (pH 8) for 3 hours at room temperature. Dilutions were used to measure levels of insoluble (amyloid-associated) […] and Aβ42 by sandwich enzyme-linked immunosorbent assays (ELISA). […] Brains were frozen in the presence of OCT paraformaldehyde, cut to 14-μm longitudinal sections used for immunohistological staining and amyloid fibril quantification. […] Images (magnification ×20) from these sections were collected from a 3CCD color video camera and analyzed with appropriate software (NIH; Imaging Research). The amount of amyloid fibril was expressed as a percentage per mm^2 hippocampal region as measured by the software.

Aβ = assay: Anti-Aβ antibody level (IgG, OD) in immunized J20 APP transgenic mice; type: in vivo
Experimental: Antibody levels were measured against Aβ in animals immunized with MOG or PLP to determine if there was cross reactivity with Aβ and Aβ antibody titers as compared to those from animals immunized with Aβ. […] To definitively establish that antibodies were not playing a role, 16-month-old J20 mice bred to μMT B-cell deficient mice were immunized with MOG 35-55 in CFA followed by administration of Pertussis toxin.

Aβ40 and Aβ42 [3] = assay: Total brain Aβ by sandwich ELISA, J20 APP transgenic mice; type: in vivo
Aβ fibrils = type: in vivo, mice; conditions: for % Area of thioflavin positive Aβ plaques (hippocampus): subcutaneous immunization in CFA + pertussis toxin
Experimental: Amyloid quantification. To quantify amyloid burden, the right hemisphere was extracted in 5.0 M guanidinium-chloride (pH 8) for 3 hours at room temperature. Dilutions were used to measure levels of insoluble (amyloid-associated) […] and Aβ42 by sandwich enzyme-linked immunosorbent assays (ELISA). To measure Aβ fibrils, the left hemisphere was fixed in 4% […] O/N followed by 4.5% sucrose for 4 hours then 20% Sucrose for O/N at 4° C. Brains were frozen in the presence of OCT paraformaldehyde, cut to 14-μm longitudinal sections used for immunohistological staining and amyloid fibril quantification. Well-defined hippocampal regions (Bregma −1.34), were selected for quantification of the amount of amyloid fibril in plaques using thioflavin-S staining. Images (magnification ×20) from these sections were collected from a 3CCD color video camera and analyzed with appropriate software (NIH; Imaging Research). The amount of amyloid fibril was expressed as a percentage per mm^2 hippocampal region as measured by the software.

[4] = immunization in CFA + pertussis toxin, APP transgenic mice
[5] = level of OD at titer of 1:500 IgG, subcutaneous immunization in CFA + pertussis toxin, J20 APP transgenic mice
[6] = nasal immunization, J20 APP transgenic mice
[7] = subcutaneous (footpad) immunization in CFA + pertussis toxin, J20 APP transgenic mice, scale 0-5
[8] = μMT B-cell deficient J20 APP+ mice
[9] = μMT B-cell deficient APP+ mice, CFA + Pertussis toxin
[10] = Subcutaneous (CFA/P.T.), B-deficient mice

INF-gamma: Th1-type cytokine INF-gamma
augmentation of microglial phagocytosis (microglial phagocytosis): 75 % above untreated

bovine serum albumin [BSA/CFA]
occurrence of EAE (J20 APP transgenic mice): no EAE was observed
activated microglia (CD11b) in hippocampus [1]: 76±17 cells/hippocampus region

glatiramer acetate [GA]
microglial activation in APP non-transgenic mice (APP non-transgenic mice): No microglial activation
reduction of total brain Aβ (ELISA) / total amyloid load vs. control (Aβ40 and Aβ42 [2]; [4]): 70%
Total brain Aβ (Aβ40 and Aβ42 [2]; J20 APP transgenic mice): 39.1 ± 12.8 ^c ng/ml
Anti-Aβ Antibody (Aβ; level of OD 450 at titer of 1:50 IgG, nasal immunization, J20 APP transgenic mice): 0 OD 450
Anti-Aβ Antibody (Aβ; [5]): 0 OD
effect on total Aβ levels in the brain (Aβ40 and Aβ42 [3]; nasal administration): slight reduction
Total brain Aβ (Aβ40 and Aβ42 [3]; [6]): 97.6 ± 15.5 ng/mL
occurrence of EAE (J20 APP transgenic mice): no clinical EAE
EAE score (J20 APP transgenic mice; [6]): 0
EAE score (J20 APP transgenic mice; [7]): 0
reduction of staining for Aβ fibril in the hippocampus (thioflavin S) vs. controls (Aβ fibrils; [4]): 92%
effect on Aβ fibrils / fibrillar Aβ staining (Aβ fibrils; mouse, in vivo): did not affect Aβ fibrils
% Area of thioflavin S positive Aβ plaques (hippocampus) (Aβ fibrils; [6]): 2.06 ± 0.8%
% Area of thioflavin positive Aβ plaques (hippocampus) (Aβ fibrils; J20 APP transgenic mice): 0.26 ± 0.1 ^d %
CD3, number of cells per hippocampal region ([1]; NASAL): 35 ± 19 cells per hippocampal region
CD11b, number of cells per hippocampal region ([1]; NASAL): 136 ± 12 cells per hippocampal region
IFN-γ, number of cells per hippocampal region ([1]; NASAL): 53 ± 3 ^i cells per hippocampal region
IL-10, number of cells per hippocampal region ([1]; NASAL): 75 ± 7 cells per hippocampal region
M-CSFR, number of cells per hippocampal region ([1]; NASAL): 30 ± 9 cells per hippocampal region
TGF-β, number of cells per hippocampal region ([1]; NASAL): 77 ± 10 cells per hippocampal region
CD3, number of cells per hippocampal region ([1]; Subcutaneous (CFA/P.T.)): 61 ± 12 ^i cells per hippocampal region
CD11b, number of cells per hippocampal region ([1]; Subcutaneous (CFA/P.T.)): 227 ± 61 ^i cells per hippocampal region
IFN-γ, number of cells per hippocampal region ([1]; Subcutaneous (CFA/P.T.)): 85 ± 11 ^iv cells per hippocampal region
IL-10, number of cells per hippocampal region ([1]; Subcutaneous (CFA/P.T.)): 59 ± 7 cells per hippocampal region
M-CSFR, number of cells per hippocampal region ([1]; Subcutaneous (CFA/P.T.)): 57 ± 8 cells per hippocampal region
TGF-β, number of cells per hippocampal region ([1]; Subcutaneous (CFA/P.T.)): 31 ± 7 cells per hippocampal region

human β-amyloid peptide (Aβ amino acids 1-40)
Total brain Aβ (Aβ40 and Aβ42 [2]; J20 APP transgenic mice): 60.8 ± 16 ^a ng/ml
Anti-Aβ Antibody (Aβ; [5]): 0.75 OD
occurrence of EAE (J20 APP transgenic mice): no EAE was observed
EAE score (J20 APP transgenic mice; [7]): 0
% Area of thioflavin positive Aβ plaques (hippocampus) (Aβ fibrils; J20 APP transgenic mice): 0.83 ± 0.3 ^a %
CD3, number of cells per hippocampal region ([1]; Subcutaneous (CFA/P.T.)): 10 ± 2 cells per hippocampal region
CD11b, number of cells per hippocampal region ([1]; Subcutaneous (CFA/P.T.)): 106 ± 27 cells per hippocampal region
IFN-γ, number of cells per hippocampal region ([1]; Subcutaneous (CFA/P.T.)): 9 ± 2 cells per hippocampal region
IL-10, number of cells per hippocampal region ([1]; Subcutaneous (CFA/P.T.)): 44 ± 5 cells per hippocampal region
M-CSFR, number of cells per hippocampal region ([1]; Subcutaneous (CFA/P.T.)): 34 ± 11 cells per hippocampal region
TGF-β, number of cells per hippocampal region ([1]; Subcutaneous (CFA/P.T.)): 41 ± 5 cells per hippocampal region
activated microglia (CD11b) in hippocampus [1]: 106±27 cells/hippocampus region

myelin oligodendrocyte glycoprotein (MOG) peptide (amino acids 35-55) (MEVGWYRSPFSRVVHLYRNGK; UniProt Q61885 63-83, looked up, fragment)
reduction of total brain Aβ (ELISA) / total amyloid load vs. control (Aβ40 and Aβ42 [2]; [4]): 94%
reduction of total brain Aβ (ELISA) compared to Aβ 1-40 immunized mice (Aβ40 and Aβ42 [2]; [4]): 86%
Total brain Aβ (Aβ40 and Aβ42 [2]; J20 APP transgenic mice): 8.4 ± 2.1 ^b ng/ml
Total brain Aβ (Aβ40 and Aβ42 [2]; [8]): 11.4 ± 2.7 ^b ng/ml
reduction in amyloid compared to control by ELISA for total brain amyloid (Aβ40 and Aβ42 [2]; [9]): 90%
anti-Aβ antibodies (Aβ; MOG immunization): not detected
Anti-Aβ Antibody (Aβ; [5]): 0 OD
Anti-Aβ Antibody (Aβ; level of OD at titer of 1:500 IgG, subcutaneous, μMT B-cell deficient J20 APP+ mice): 0 OD
EAE score (J20 APP transgenic mice; [7]): 2.5 ± 0.8
EAE score (J20 APP transgenic mice; subcutaneous immunization in CFA + pertussis toxin, μMT B-cell deficient J20 APP+ mice): 2.7 ± 0.4
reduction of staining for Aβ fibril in the hippocampus (thioflavin S) compared to mice immunized with Aβ 1-40 (Aβ fibrils; [4]): 73%
reduction of staining for Aβ fibril in the hippocampus (thioflavin S) vs. controls (Aβ fibrils; [4]): 92%
% Area of thioflavin positive Aβ plaques (hippocampus) (Aβ fibrils; J20 APP transgenic mice): 0.22 ± 0.1 ^b %
% Area of thioflavin positive Aβ plaques (hippocampus) (Aβ fibrils; [8]): 0.27 ± 0.04 ^b %
reduction in amyloid compared to control by ThS staining (Aβ fibrils; [9]): 90%
CD3, number of cells per hippocampal region ([1]; Subcutaneous (CFA/P.T.)): 142 ± 19 ^iv cells per hippocampal region
CD11b, number of cells per hippocampal region ([1]; Subcutaneous (CFA/P.T.)): 349 ± 34.3 ^iv cells per hippocampal region
IFN-γ, number of cells per hippocampal region ([1]; Subcutaneous (CFA/P.T.)): 109 ± 7 ^iv cells per hippocampal region
IL-10, number of cells per hippocampal region ([1]; Subcutaneous (CFA/P.T.)): 21 ± 9 ^ii cells per hippocampal region
M-CSFR, number of cells per hippocampal region ([1]; Subcutaneous (CFA/P.T.)): 79 ± 5 ^i cells per hippocampal region
TGF-β, number of cells per hippocampal region ([1]; Subcutaneous (CFA/P.T.)): 20 ± 5 ^iii cells per hippocampal region
CD3, number of cells per hippocampal region [1, 10]: 195 ± 12 ^iv cells per hippocampal region
CD11b, number of cells per hippocampal region [1, 10]: 462 ± 23 ^iv cells per hippocampal region
IFN-γ, number of cells per hippocampal region [1, 10]: 119 ± 18 ^iv cells per hippocampal region
IL-10, number of cells per hippocampal region [1, 10]: 25 ± 5 ^i cells per hippocampal region
M-CSFR, number of cells per hippocampal region [1, 10]: 77 ± 6 ^i cells per hippocampal region
TGF-β, number of cells per hippocampal region [1, 10]: 22 ± 8 ^ii cells per hippocampal region
activated microglia (CD11b) in hippocampus [1]: 349±34.3 cells/hippocampus region
